Measured values from patent US10167262B2, “Herbicidal substituted 3-arylpyrazoles” (FMC CORPORATION, priority 2014, dated 2019).

How the values were obtained:
Test in all cases: Test E pre-/postemergence greenhouse test, plant response rating 0-100
Type in all cases: in vivo
[1] = test system: Brazilian crabgrass (Digitaria horizontalis); settings: Postemergence, scale 0 to 100
Outline: (§1)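 Greenhouse pot assay, two application timings. Pre- to silt loam at planting; post- to 1–4-leaf plants. Visual 0–100 score at 14–21 d.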

[2] = test system: Italian ryegrass (Lolium multiflorum); settings: scale 0 to 100; for Plant response rating, Ryegrass, Italian: Postemergence; for Ryegrass, Italian plant response rating: Preemergence
Outline: as §1

[3] = test system: arrowleaf sida (Sida rhombifolia); settings: for Plant response rating, Arrowleaf Sida: Postemergence; for Arrowleaf Sida plant response rating: Preemergence
Outline: as §1

[4] = test system: barnyardgrass (Echinochloa crus-galli); settings: scale 0 to 100; for Plant response rating, Barnyardgrass: Postemergence; for Barnyardgrass plant response rating: Preemergence
Outline: as §1

corn (Zea mays) = settings: scale 0 to 100; for Plant response rating, Corn: Postemergence; for Corn plant response rating: Preemergence
Outline: as §1

[5] = test system: dayflower (Virginia (VA) dayflower, Commelina virginica); settings: scale 0 to 100; for Plant response rating, Dayflower, VA: Postemergence; for Dayflower, VA plant response rating: Preemergence
Outline: as §1

[6] = test system: field bindweed (Convolvulus arvensis); settings: scale 0 to 100; for Plant response rating, Field Bindweed: Postemergence; for Field Bindweed plant response rating: Preemergence
Outline: as §1

[7] = test system: hairy beggarticks (Bidens pilosa); settings: scale 0 to 100; for Plant response rating, Beggarticks: Postemergence; for Beggarticks plant response rating: Preemergence
Outline: as §1

[8] = test system: palmer pigweed (Amaranthus palmeri); settings: scale 0 to 100; for Plant response rating, Pigweed, Palmer: Postemergence; for Pigweed, Palmer plant response rating: Preemergence
Outline: as §1

[9] = test system: sandbur (southern sandbur, Cenchrus echinatus); settings: scale 0 to 100; for Plant response rating, Sandbur: Postemergence; for Sandbur plant response rating: Preemergence
Outline: as §1

[10] = test system: waterhemp (common waterhemp, Amaranthus rudis); settings: scale 0 to 100; for Plant response rating, Waterhemp: Postemergence; for Waterhemp plant response rating: Preemergence
Outline: as §1

[11] = test system: wild poinsettia (Euphorbia heterophylla); settings: scale 0 to 100; for Plant response rating, Poinsettia, Wild: Postemergence; for Poinsettia, Wild plant response rating: Preemergence
Outline: as §1

## O=C(c1ccccc1)c1cn(S(=O)(=O)CCl)nc1-c1cc(Cl)cc(Cl)c1 [Compound 1]
[1]; 31 g ai/ha
  Plant response rating, Crabgrass, Brazil: 0
[1]; 62 g ai/ha
  Plant response rating, Crabgrass, Brazil: 0
[1]; 125 g ai/ha
  Plant response rating, Crabgrass, Brazil: 0
[1]; 250 g ai/ha
  Plant response rating, Crabgrass, Brazil: 0
[1]; 500 g ai/ha
  Plant response rating, Crabgrass, Brazil: 0
[2]; 31 g ai/ha
  Plant response rating, Ryegrass, Italian: 0
  Ryegrass, Italian plant response rating: 0
[2]; 62 g ai/ha
  Plant response rating, Ryegrass, Italian: 0
  Ryegrass, Italian plant response rating: 0
[2]; 125 g ai/ha
  Plant response rating, Ryegrass, Italian: 0
  Ryegrass, Italian plant response rating: 0
[2]; 250 g ai/ha
  Plant response rating, Ryegrass, Italian: 0
  Ryegrass, Italian plant response rating: 0
[2]; 500 g ai/ha
  Plant response rating, Ryegrass, Italian: 0
  Ryegrass, Italian plant response rating: 0
[3]; 31 g ai/ha, scale 0 to 100
  Plant response rating, Arrowleaf Sida: 80
  Arrowleaf Sida plant response rating: 20
[3]; 62 g ai/ha, scale 0 to 100
  Plant response rating, Arrowleaf Sida: 90
  Arrowleaf Sida plant response rating: 25
[3]; 125 g ai/ha, scale 0 to 100
  Plant response rating, Arrowleaf Sida: 95
  Arrowleaf Sida plant response rating: 25
[3]; 250 g ai/ha, scale 0 to 100
  Plant response rating, Arrowleaf Sida: 95
  Arrowleaf Sida plant response rating: 20
[3]; 500 g ai/ha, scale 0 to 100 (0 no effect, 100 complete control)
  Plant response rating, Arrowleaf Sida: 98
[3]; 500 g ai/ha, scale 0 to 100
  Arrowleaf Sida plant response rating: 75
[4]; 31 g ai/ha
  Plant response rating, Barnyardgrass: 0
[4]; 62 g ai/ha
  Plant response rating, Barnyardgrass: 0
  Barnyardgrass plant response rating: 0
[4]; 125 g ai/ha
  Plant response rating, Barnyardgrass: 0
  Barnyardgrass plant response rating: 0
[4]; 250 g ai/ha
  Plant response rating, Barnyardgrass: 0
  Barnyardgrass plant response rating: 0
[4]; 500 g ai/ha
  Plant response rating, Barnyardgrass: 0
  Barnyardgrass plant response rating: 0
Corn (Zea mays); 31 g ai/ha
  Plant response rating, Corn: 0
  Corn plant response rating: 0
Corn (Zea mays); 62 g ai/ha
  Plant response rating, Corn: 0
  Corn plant response rating: 0
Corn (Zea mays); 125 g ai/ha
  Plant response rating, Corn: 0
  Corn plant response rating: 0
Corn (Zea mays); 250 g ai/ha
  Plant response rating, Corn: 0
  Corn plant response rating: 0
Corn (Zea mays); 500 g ai/ha
  Plant response rating, Corn: 0
  Corn plant response rating: 0
[5]; 31 g ai/ha
  Plant response rating, Dayflower, VA: 0
  Dayflower, VA plant response rating: 0
[5]; 62 g ai/ha
  Plant response rating, Dayflower, VA: 0
[5]; 125 g ai/ha
  Plant response rating, Dayflower, VA: 0
  Dayflower, VA plant response rating: 0
[5]; 250 g ai/ha
  Plant response rating, Dayflower, VA: 0
  Dayflower, VA plant response rating: 0
[5]; 500 g ai/ha
  Plant response rating, Dayflower, VA: 0
  Dayflower, VA plant response rating: 0
[6]; 31 g ai/ha
  Plant response rating, Field Bindweed: 0
  Field Bindweed plant response rating: 0
[6]; 62 g ai/ha
  Plant response rating, Field Bindweed: 0
  Field Bindweed plant response rating: 0
[6]; 125 g ai/ha
  Plant response rating, Field Bindweed: 0
  Field Bindweed plant response rating: 0
[6]; 250 g ai/ha
  Plant response rating, Field Bindweed: 0
  Field Bindweed plant response rating: 0
[6]; 500 g ai/ha
  Plant response rating, Field Bindweed: 0
  Field Bindweed plant response rating: 0
[7]; 31 g ai/ha
  Plant response rating, Beggarticks: 30
  Beggarticks plant response rating: 0
[7]; 62 g ai/ha
  Plant response rating, Beggarticks: 95
  Beggarticks plant response rating: 0
[7]; 125 g ai/ha
  Plant response rating, Beggarticks: 98
  Beggarticks plant response rating: 0
[7]; 250 g ai/ha
  Plant response rating, Beggarticks: 98
  Beggarticks plant response rating: 35
[7]; 500 g ai/ha
  Plant response rating, Beggarticks: 98
  Beggarticks plant response rating: 35
[8]; 31 g ai/ha
  Plant response rating, Pigweed, Palmer: 50
  Pigweed, Palmer plant response rating: 0
[8]; 62 g ai/ha
  Plant response rating, Pigweed, Palmer: 25
  Pigweed, Palmer plant response rating: 20
[8]; 125 g ai/ha
  Plant response rating, Pigweed, Palmer: 75
  Pigweed, Palmer plant response rating: 25
[8]; 250 g ai/ha
  Plant response rating, Pigweed, Palmer: 70
  Pigweed, Palmer plant response rating: 20
[8]; 500 g ai/ha
  Plant response rating, Pigweed, Palmer: 98
  Pigweed, Palmer plant response rating: 100
[9]; 31 g ai/ha
  Plant response rating, Sandbur: 0
  Sandbur plant response rating: 0
[9]; 62 g ai/ha
  Plant response rating, Sandbur: 0
  Sandbur plant response rating: 0
[9]; 125 g ai/ha
  Plant response rating, Sandbur: 0
  Sandbur plant response rating: 0
[9]; 250 g ai/ha
  Plant response rating, Sandbur: 0
  Sandbur plant response rating: 20
[9]; 500 g ai/ha
  Plant response rating, Sandbur: 0
  Sandbur plant response rating: 20
[10]; 31 g ai/ha
  Plant response rating, Waterhemp: 65
  Waterhemp plant response rating: 0
[10]; 62 g ai/ha
  Plant response rating, Waterhemp: 90
  Waterhemp plant response rating: 20
[10]; 125 g ai/ha
  Plant response rating, Waterhemp: 98
  Waterhemp plant response rating: 60
[10]; 250 g ai/ha
  Plant response rating, Waterhemp: 98
  Waterhemp plant response rating: 60
[10]; 500 g ai/ha
  Plant response rating, Waterhemp: 100
  Waterhemp plant response rating: 100
[11]; 31 g ai/ha
  Plant response rating, Poinsettia, Wild: 0
  Poinsettia, Wild plant response rating: 0
[11]; 62 g ai/ha
  Plant response rating, Poinsettia, Wild: 0
  Poinsettia, Wild plant response rating: 0
[11]; 125 g ai/ha
  Plant response rating, Poinsettia, Wild: 0
  Poinsettia, Wild plant response rating: 0
[11]; 250 g ai/ha
  Plant response rating, Poinsettia, Wild: 0
[11]; 500 g ai/ha
  Plant response rating, Poinsettia, Wild: 0
  Poinsettia, Wild plant response rating: 0
